Test system: GH surge induced by GHRH
Test: Effect on circulating growth hormone: GH surge induced by i.v. GHRH in rats, plasma GH by RIA
Format: in vivo, male Sprague-Dawley rats
Experimental: Experiments were conducted in male Sprague-Dawley rats (200-220 g) obtained from lffa Credo (L'Arbresle, France), fed with standard laboratory chow ad libitum and kept on a 12 h light-dark in a temperature- and humidity-controlled room.
Rats were weighed and anesthetized with Narcorene. The ventral side of the throat was shaved and an incision was made down the center of the throat. The right jugular vein was exposed and cannulated using a polythene tubing (OD 1.0 mm) connected to a medical grade silicone tubing (OD 0.94 mm) (silicone side in the jugular vein). The tubing was secured and the polythene side was externalized through an incision made on the dorsal side of the neck. The catheter was rinsed with 300 μL of a Ringer solution containing 0.1% heparin. Rats were allowed to recover for at least 24 hours in individual cages with food and water available ad libitum.
The compound of Example 1B (3 mg/kg, i.v.) or its vehicle was injected 15 minutes before an injection of GHRH (0.1 μg/kg, i.v.). Blood samples (200-250 μL) were removed immediately before inhibitor and GHRH injections, and then 5, 10, 15, 20, 30 and 60 min post-GHRH. Each blood sample was replaced with an equivalent volume of a Ringer solution containing 0.1% heparin. Plasma was extracted and stored at −20° C. until determinations of GH by RIA.

For `CC(C)(C)[C@H](N)C(=O)N1CCC[C@H]1C#N` [Example 1B, (2S)-N-((2′S)-2′-amino-3′,3′-dimethylbutanoyl)pyrrolidine-2-carbonitrile], the “Effect on the GH surge induced by the administration of GHRH” value (3 mg/kg i.v. 15 min before GHRH 0.1 μg/kg i.v., rats) was “potentiated the GH surge”, the “mean GH, Time 5 min” value (5 min post-GHRH 0.1 μg/kg i.v., inhibitor 3 mg/kg i.v. 15 min before GHRH, mean of 6 rats ± s.e.m.) was 483.0 ± 91.0 ng/mL and the “mean GH, Time 10 min” value (10 min post-GHRH 0.1 μg/kg i.v., inhibitor 3 mg/kg i.v. 15 min before GHRH, mean of 6 rats ± s.e.m.) was 309.5 ± 55.40 ng/mL. The “mean GH, Time 0 min” value (15 min after inhibitor 3 mg/kg i.v., immediately before GHRH 0.1 μg/kg i.v., mean of 6 rats ± s.e.m.) was 33.4 ± 6.9 ng/mL, the “mean GH, Time 15 min” value (15 min post-GHRH 0.1 μg/kg i.v., inhibitor 3 mg/kg i.v. 15 min before GHRH, mean of 6 rats ± s.e.m.) was 164.3 ± 28.3 ng/mL and the “mean GH, Time 20 min” value (20 min post-GHRH 0.1 μg/kg i.v., inhibitor 3 mg/kg i.v. 15 min before GHRH, mean of 6 rats ± s.e.m.) was 103.1 ± 18.1 ng/mL. For the same compound, the “mean GH, Time 30 min” value (30 min post-GHRH 0.1 μg/kg i.v., inhibitor 3 mg/kg i.v. 15 min before GHRH, mean of 6 rats ± s.e.m.) was 52.1 ± 7.7 ng/mL, the “mean GH, Time 60 min” value (60 min post-GHRH 0.1 μg/kg i.v., inhibitor 3 mg/kg i.v. 15 min before GHRH, mean of 6 rats ± s.e.m.) was 26.3 ± 3.3 ng/mL and the GH AUC (AUC column of Table 1, inhibitor 3 mg/kg i.v. 15 min before GHRH 0.1 μg/kg i.v., 6 rats, ± s.e.m.) was 5070 ± 837 ng·min/mL. The “Integrated GH response” value (inhibitor-treated group, 3 mg/kg i.v. 15 min before GHRH 0.1 μg/kg i.v., p<0.05 vs vehicle (720.2±217.0)) was 5072.8±837.3 ng/ml.60 min and the “mean GH, Time -15 min” value (plasma GH immediately before inhibitor injection (3 mg/kg i.v.), mean of 6 rats ± s.e.m.) was 50.5 ± 16.4 ng/mL.
